Measured values from paper PMC4929710, “Specificity and mechanism of action of alpha-helical membrane-active peptides interacting with model and biological membranes by single-molecule force spectroscopy” (Scientific Reports, 2016).
Where two headings read alike, the source gives them in different places.

Legend:
E. coli ATCC25922 = assay type: cell-based
Protocol: (§1) Then, 10 μL of peptides was added. […] All assays were repeated in triplicate.

P. aeruginosa ATCC27853 = assay type: cell-based
Protocol: as §1

S. aureus ATCC25923 = assay type: cell-based
Protocol: as §1

S. epidermidis ATCC12228 = assay type: cell-based
Protocol: as §1

[1] = tested on: gram-negative bacteria (P. aeruginosa and E. coli); assay type: cell-based
Protocol: as §1

[2] = tested on: gram-positive bacteria (S. aureus and S. epidermidis); assay type: cell-based
Protocol: as §1

PC/Chol (8:1 w/w) LUVs [3] = assay: Single-molecule force spectroscopy (AFM); assay type: binding; conditions: RMS ± SD; N-terminal Cys peptide on AFM tip via PEG linker; normal eukaryotic model membrane
From the text: (§2) Based on the above results, five selected peptides of V13L, A12L/A20L, V13K, V13E, and L6A/L17A, with different hydrophobicity and charges were used to examine the interaction probabilities and forces between peptides and membranes, both on the lipid model membranes and on the biological membranes by SMFS based on AFM, respectively. A cysteine residue was covalently introduced to the N-terminus of peptides and provided a free sulfhydryl group to modify the tips of the AFM. A PEG linker was used since each heterobifunctional PEG–NHS linker (approximately 20 nm) can only covalently connect with a single peptide molecule, which guarantees a single-molecule interaction between MAPs and biological membranes in real time[19]. If an AFM tip was functionalized with two or more peptides, where several peaks were recorded. In the reports, data with two peaks were not collected and calculated. For one force–distance cycle, one peptide-functionalized AFM tip approached the model and biological membranes right on the top, and the subsequent tip was withdrawn from the cell membranes to retrace the process. […] In addition, blocking experiment was used to test the specificity of these force events. As the electrostatic attraction is one important reason for peptides approaching model membranes and biological membranes, the Tris-HCl buffer including plenty amino groups[20] was injected into the working chamber and inhibits the interactions between MAPs and model membranes/biological membranes. […] The unbinding forces of V13L against different model membranes and biological membranes with the loading rate of 1 × 10^5 pN s^−1 are shown in Fig. 3c,f–h,j–l.
Lipids using the freeze-thaw method as described previously, followed by extrusion through […] double-stacked nuclepore filters using an Mini-Extruder (Avanti Polar Lipids, Inc.)[11][27].
(§3) The AFM tip was first washed with concentrated sulfuric acid and hydrogen peroxide (3:1, v:v). The tip was dried using ozone (O3) for 15 min and dried overnight in a dryer. The tip was then modified with APTES under an argon atmosphere and the peptide connected with a PEG–NHS linker. Finally, the AFM tip linked with the peptide was washed three times in PBS and kept at 4 °C. A 500-μL LUV suspension was deposited on Lys coated glass and the LUVs were absorbed on the surface for 1 h at 65 °C [9][29]. A. laidlawii was deposited on poly-L-lysine coated glass and absorbed for 1 h at 37 °C [30]. The 3T3-L1 and HeLa cells were cultured on glass slides in Dulbecco’s modified Eagle’s medium (DMEM). Before performing force spectroscopy experiments, the cells were washed with fresh DMEM three times to remove the cell metabolites. Isolation of chicken erythrocytes was carried out at room temperature. […]

HeLa cells = assay: Single-molecule force spectroscopy (AFM); assay type: binding, human; conditions: RMS ± SD; N-terminal Cys peptide on AFM tip via PEG linker
From the text: as §2
as §3, with “temperature. Then the erythrocytes were washed three times in 2 mL PBS buffer by centrifuge (1,000 rpm) and resuspended in PBS buffer. 200 μL erythrocyte suspension were deposited onto poly-L-lysine coated glass for 20 min[10].” for “temperature.”

[4] = tested on: chicken erythrocyte membranes; assay: Single-molecule force spectroscopy (AFM); assay type: binding; conditions: for Unbinding force Chicken erythrocyte: RMS ± SD, N-terminal Cys peptide on AFM tip via PEG linker
From the text: as §2
The AFM tip was first washed with concentrated sulfuric acid and hydrogen peroxide (3:1, v:v). The tip was dried using ozone (O3) for 15 min and dried overnight in a dryer. The tip was then modified with APTES under an argon atmosphere and the peptide connected with a PEG–NHS linker. Finally, the AFM tip linked with the peptide was washed three times in PBS and kept at 4 °C. A 500-μL LUV suspension was deposited on Lys coated glass and the LUVs were absorbed on the surface for 1 h at 65 °C [9][29]. A. laidlawii was deposited on poly-L-lysine coated glass and absorbed for 1 h at 37 °C [30]. The 3T3-L1 and HeLa cells were cultured on glass slides in Dulbecco’s modified Eagle’s medium (DMEM). Before performing force spectroscopy experiments, the cells were washed with fresh DMEM three times to remove the cell metabolites. Isolation of chicken erythrocytes was carried out at room temperature. Then the erythrocytes were washed three times in 2 mL PBS buffer by centrifuge (1,000 rpm) and resuspended in PBS buffer. 200 μL erythrocyte suspension were deposited onto poly-L-lysine coated glass for 20 min[10]. The force measurements of MAPs with LUVs mimicking membranes and living cells were performed using the AFM5500 (Agilent Technologies, Chandler, AZ, USA)[19].

PC/Chol (8:1 w/w) LUVs [5] = assay: Tryptophan fluorescence with LUVs; assay type: binding; conditions: PC/Chol (8:1 w/w) LUVs versus HEPES buffer, 25 °C
From the text: (§4) In order to investigate the interaction between peptides and difference types of cell membranes, three different LUVs were used to mimic a prokaryotic cell membrane (PC/PG), a normal eukaryotic cell membrane (PC/Chol), and a cancer cell membrane (PC/SM/PE/PS/Chol). Tryptophan residue in the peptide sequence was used as a fluorescent probe to examine the interaction of peptides with model membranes. […] For example, in the PC/PG (7:3 w/w) anionic prokaryotic mimicking model membrane, peptides V13L and A12L/A20L had the strongest hydrophobicity with blue shift values of approximately 37 nm and 38 nm, respectively. Conversely, peptide V13E with a negative charge of glutamic acid residue, and peptide L6A/L17A with the lowest hydrophobicity had blue shift values of approximately 18 nm and 17 nm, respectively. […] In addition, within PC/SM/PE/PS/Chol (4.35:4.35:1:0.3:1 w/w) as a cancer-mimicking model membrane, the same results could be obtained in that peptide hydrophobicity correlates with anticancer activity and the blue shift values of peptides.
(§5) In accordance with previously described methods, LUVs were prepared with PC/PG (7:3 w/w), PC/Chol (8:1 w/w), and PC/SM/PE/PS/Chol (4.35:4.35:1:0.3:1 w/w) to mimic prokaryotic cell, […], membranes, respectively. Lipids using the freeze-thaw method as described previously, followed by extrusion through […] double-stacked nuclepore filters using an Mini-Extruder (Avanti Polar Lipids, Inc.)[11][27].
(§6) Three kinds of LUVs were prepared and cultured in HEPES buffer (pH 7.4, 10 mM HEPES, 150 mM NaCl) and the molar concentration was adjusted to 100 μM. A total of 14 μL of 100 μM MAPs was mixed with 686 μL of 100 μM liposomes at 25 °C for 10 min. A Shimadzu RF-5301PC, (excitation wavelength of […], emission wavelength of 300–450 nm) was used to measure the tryptophan fluorescence. Potassium iodide (KI) as a quencher was added to the previous reaction system for a final concentration of 0.02–0.08 M, respectively. The experimental data were plotted according to the Stern–Volmer equation F0/F = 1 + Ksv[Q], where F0 and F are the fluorescence intensity in the absence or presence of a quencher at concentration [Q], respectively, and Ksv is the Stern–Volmer quenching constant.

[6] = tested on: PC/SM/PE/PS/Chol (4.35:4.35:1:0.3:1 w/w) LUVs; assay: Tryptophan fluorescence with LUVs; assay type: binding; conditions: PC/SM/PE/PS/Chol (4.35:4.35:1:0.3:1 w/w) LUVs versus HEPES buffer, 25 °C
From the text: as §4, §5, §6

[7] = MH medium, 5 × 10^5 CFU/mL, 24 h, 37 °C, triplicate
[8] = geometric mean of MIC values from two gram-negative strains
[9] = geometric mean of MIC values from two gram-positive strains

Compound	G− MIC E. coli ATCC25922 (E. coli ATCC25922; [7]) [µM]	G− MIC P. aeruginosa ATCC27853 (P. aeruginosa ATCC27853; [7]) [µM]	G+ MIC S. aureus ATCC25923 (S. aureus ATCC25923; [7]) [µM]	G+ MIC S. epidermidis ATCC12228 (S. epidermidis ATCC12228; [7]) [µM]	G− MIC GM [1, 8] [µM]	G+ MIC GM [2, 9] [µM]	Unbinding force PC/Chol (PC/Chol (8:1 w/w) LUVs [3]) [pN]	Unbinding force HeLa (HeLa cells) [pN]	Unbinding force Chicken erythrocyte [4] [pN]	PC/Chol Blue shift (PC/Chol (8:1 w/w) LUVs [5]) [nm]	PC/SM/PE/PS/Chol Blueshift [6] [nm]	G− MIC E. coli ATCC25922 (E. coli ATCC25922; ATCC25922, 24 h) [µM]	G− MIC P. aeruginosa ATCC27853 (P. aeruginosa ATCC27853; ATCC27853, 24 h) [µM]	G+ MIC S. aureus ATCC25923 (S. aureus ATCC25923; ATCC25923, 24 h) [µM]	G+ MIC S. epidermidis ATCC12228 (S. epidermidis ATCC12228; ATCC12228, 24 h) [µM]	G− MIC GM [1] [µM]	G+ MIC GM [2] [µM]	Interaction probability of the force signal ([4]; chicken erythrocyte membranes, out of about 1000 force cycles)
Ac-KWKSFAKTFKSAKKTVAHTALKAISS-NH2 [L6A/L17A]	125	125	125	125	125	125	100 ± 34	39 ± 11	78 ± 39	0	21							
Ac-KWKSFLKTFKSALKTVLHTALKAISS-NH2 [Peptide V13L]							98 ± 30	31 ± 10	76 ± 34	11		4	8	8	2	5.66	4	about 18%
Ac-KWKSFLKTFKSAEKTVLHTALKAISS-NH2 [Peptide V13E]							89 ± 34	36 ± 14	59 ± 35	1	23	64	125	125	125	89.44	125	
CC[C@H](C)[C@H](NC(=O)[C@H](C)NC(=O)[C@H](CCCCN)NC(=O)[C@H](CC(C)C)NC(=O)[C@H](C)NC(=O)[C@@H](NC(=O)[C@H](Cc1cnc[nH]1)NC(=O)[C@H](CC(C)C)NC(=O)[C@@H](NC(=O)[C@@H](NC(=O)[C@H](CCCCN)NC(=O)[C@H](CCCCN)NC(=O)[C@H](C)NC(=O)[C@H](CO)NC(=O)[C@H](CCCCN)NC(=O)[C@H](Cc1ccccc1)NC(=O)[C@@H](NC(=O)[C@H](CCCCN)NC(=O)[C@H](CC(C)C)NC(=O)[C@H](Cc1ccccc1)NC(=O)[C@H](CO)NC(=O)[C@H](CCCCN)NC(=O)[C@H](Cc1c[nH]c2ccccc12)NC(=O)[C@H](CCCCN)NC(C)=O)[C@@H](C)O)[C@@H](C)O)C(C)C)[C@@H](C)O)C(=O)N[C@@H](CO)C(=O)N[C@@H](CO)C(N)=O [Peptide V13K]	8	8	32	4	8	11.31	101 ± 37	52 ± 20	87 ± 39	4	27							
